From article PMC9052545 (RSC Advances, 2020)

The substances below were run against HER2-Fc (HER2) (Homo sapiens, UniProt P04626). Details: SEM, n = 3.

First: FN3 with RKPKSG grafted at residues 51-56 (His-tagged) [FN3-p4.4]
Second: FN3 with YCGCEM grafted at residues 51-56 (His-tagged) [FN3-p1]
The Kd of the first is 1.8-fold higher: 500 ± 150 nM for the first, 280 ± 23 nM for the second.

“FN3 with YCICCM grafted at residues 51-56 (His-tagged) [FN3-p1.M.1]” and “FN3 with YCPVCM grafted at residues 51-56 (His-tagged) [FN3-p1.M.3]” are within error of each other in Kd: 68 ± 14 nM for the first, 110 ± 28 nM for the second.
